Key:
Carbonic anhydrase 2 = Carbonic anhydrase 2 (Homo sapiens, UniProt P00918); test: DRUGMATRIX: Carbonic Anhydrase II enzyme inhibition (substrate: 4-Nitrophenyl acetate (4-NPA)); format: tissue-based; conditions: erythrocyte; Not Active = under 50% inhibition at 10 µM
[1] = biological target: Vascular endothelial growth factor receptor 1 (Homo sapiens, UniProt P17948); test: biochemical; format: cell-based, HUVEC; conditions: huvec; further: in other assays of this panel Not Active means under 50% inhibition at 10 µM
Interstitial collagenase = biological target: T1, Interstitial collagenase (Homo sapiens, UniProt P03956); test: biochemical; format: tissue-based, Rheumatoid synovial fibroblasts;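 further: MMP-1 enzyme inhibition assay using a peptide substrate; in other assays of this panel Not Active means under 50% inhibition at 10 µM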
T1 sequence (P03956 whole entry): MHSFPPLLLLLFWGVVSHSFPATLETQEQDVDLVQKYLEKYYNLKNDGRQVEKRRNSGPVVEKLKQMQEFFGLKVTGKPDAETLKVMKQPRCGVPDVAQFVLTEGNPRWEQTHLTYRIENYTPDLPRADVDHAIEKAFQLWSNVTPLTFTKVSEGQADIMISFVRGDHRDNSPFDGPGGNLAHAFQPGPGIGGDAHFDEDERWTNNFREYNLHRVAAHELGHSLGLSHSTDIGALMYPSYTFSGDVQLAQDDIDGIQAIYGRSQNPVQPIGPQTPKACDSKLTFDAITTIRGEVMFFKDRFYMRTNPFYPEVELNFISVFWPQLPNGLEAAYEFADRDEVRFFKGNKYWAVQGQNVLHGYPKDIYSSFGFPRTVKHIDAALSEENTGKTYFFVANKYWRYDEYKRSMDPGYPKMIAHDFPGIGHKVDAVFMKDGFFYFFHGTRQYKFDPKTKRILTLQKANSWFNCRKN

[2] = DRUGMATRIX: Glutamate, NMDA, Phencyclidine radioligand binding (ligand: [3H] TCP); format: cell membranes, Rattus norvegicus, Wistar, Cerebral cortex, Membrane; conditions: Not Active = under 50% inhibition at 10 µM
[3] = biological target: C-C chemokine receptor type 2 (Homo sapiens, UniProt P41597); format: cell membranes, Membrane; conditions: cho-k1; further: in other assays of this panel Not Active means under 50% inhibition at 10 µM
Estrogen receptor = biological target: T2, Estrogen receptor (Homo sapiens, UniProt P03372); conditions: sf9; further: in other assays of this panel Not Active means under 50% inhibition at 10 µM
T2 sequence (P03372 whole entry): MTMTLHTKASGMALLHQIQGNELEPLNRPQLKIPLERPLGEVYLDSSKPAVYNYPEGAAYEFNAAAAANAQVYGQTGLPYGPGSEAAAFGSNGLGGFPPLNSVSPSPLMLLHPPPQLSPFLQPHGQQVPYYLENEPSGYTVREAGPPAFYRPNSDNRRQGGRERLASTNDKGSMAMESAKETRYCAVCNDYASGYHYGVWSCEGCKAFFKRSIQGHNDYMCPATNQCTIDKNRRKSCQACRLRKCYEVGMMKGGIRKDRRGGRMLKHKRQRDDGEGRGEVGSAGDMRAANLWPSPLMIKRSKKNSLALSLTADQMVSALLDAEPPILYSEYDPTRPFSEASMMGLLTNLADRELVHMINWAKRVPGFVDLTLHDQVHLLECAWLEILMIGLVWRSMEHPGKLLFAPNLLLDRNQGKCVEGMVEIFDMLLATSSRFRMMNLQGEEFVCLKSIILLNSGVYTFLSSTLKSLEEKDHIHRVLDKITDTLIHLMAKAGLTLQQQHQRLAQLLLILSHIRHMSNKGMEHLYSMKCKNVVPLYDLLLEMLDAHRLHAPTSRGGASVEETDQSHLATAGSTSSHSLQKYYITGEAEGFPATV

Calcitonin receptor = biological target: T3, Calcitonin receptor (Homo sapiens, UniProt P30988); format: cell membranes, Membrane; conditions: t47d; further: in other assays of this panel Not Active means under 50% inhibition at 10 µM
T3 sequence (P30988 whole entry): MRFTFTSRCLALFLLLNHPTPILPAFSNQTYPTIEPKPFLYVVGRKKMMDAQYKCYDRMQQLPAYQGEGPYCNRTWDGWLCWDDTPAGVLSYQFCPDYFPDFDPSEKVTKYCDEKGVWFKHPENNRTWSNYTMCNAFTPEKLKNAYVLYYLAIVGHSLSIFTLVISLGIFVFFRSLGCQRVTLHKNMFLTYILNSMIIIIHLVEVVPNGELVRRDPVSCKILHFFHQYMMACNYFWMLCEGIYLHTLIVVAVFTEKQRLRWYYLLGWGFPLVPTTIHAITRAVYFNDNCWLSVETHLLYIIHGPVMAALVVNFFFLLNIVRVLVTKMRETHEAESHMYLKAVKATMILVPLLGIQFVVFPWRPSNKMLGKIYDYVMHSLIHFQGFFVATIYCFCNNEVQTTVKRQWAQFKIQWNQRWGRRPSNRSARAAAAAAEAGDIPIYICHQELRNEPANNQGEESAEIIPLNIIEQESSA

Nitric oxide synthase 1 = Nitric oxide synthase 1 (Rattus norvegicus, UniProt P29476); format: tissue-based, Cerebellum; further: in other assays of this panel Not Active means under 50% inhibition at 10 µM
Sequence of Nitric oxide synthase 1 (P29476 whole entry): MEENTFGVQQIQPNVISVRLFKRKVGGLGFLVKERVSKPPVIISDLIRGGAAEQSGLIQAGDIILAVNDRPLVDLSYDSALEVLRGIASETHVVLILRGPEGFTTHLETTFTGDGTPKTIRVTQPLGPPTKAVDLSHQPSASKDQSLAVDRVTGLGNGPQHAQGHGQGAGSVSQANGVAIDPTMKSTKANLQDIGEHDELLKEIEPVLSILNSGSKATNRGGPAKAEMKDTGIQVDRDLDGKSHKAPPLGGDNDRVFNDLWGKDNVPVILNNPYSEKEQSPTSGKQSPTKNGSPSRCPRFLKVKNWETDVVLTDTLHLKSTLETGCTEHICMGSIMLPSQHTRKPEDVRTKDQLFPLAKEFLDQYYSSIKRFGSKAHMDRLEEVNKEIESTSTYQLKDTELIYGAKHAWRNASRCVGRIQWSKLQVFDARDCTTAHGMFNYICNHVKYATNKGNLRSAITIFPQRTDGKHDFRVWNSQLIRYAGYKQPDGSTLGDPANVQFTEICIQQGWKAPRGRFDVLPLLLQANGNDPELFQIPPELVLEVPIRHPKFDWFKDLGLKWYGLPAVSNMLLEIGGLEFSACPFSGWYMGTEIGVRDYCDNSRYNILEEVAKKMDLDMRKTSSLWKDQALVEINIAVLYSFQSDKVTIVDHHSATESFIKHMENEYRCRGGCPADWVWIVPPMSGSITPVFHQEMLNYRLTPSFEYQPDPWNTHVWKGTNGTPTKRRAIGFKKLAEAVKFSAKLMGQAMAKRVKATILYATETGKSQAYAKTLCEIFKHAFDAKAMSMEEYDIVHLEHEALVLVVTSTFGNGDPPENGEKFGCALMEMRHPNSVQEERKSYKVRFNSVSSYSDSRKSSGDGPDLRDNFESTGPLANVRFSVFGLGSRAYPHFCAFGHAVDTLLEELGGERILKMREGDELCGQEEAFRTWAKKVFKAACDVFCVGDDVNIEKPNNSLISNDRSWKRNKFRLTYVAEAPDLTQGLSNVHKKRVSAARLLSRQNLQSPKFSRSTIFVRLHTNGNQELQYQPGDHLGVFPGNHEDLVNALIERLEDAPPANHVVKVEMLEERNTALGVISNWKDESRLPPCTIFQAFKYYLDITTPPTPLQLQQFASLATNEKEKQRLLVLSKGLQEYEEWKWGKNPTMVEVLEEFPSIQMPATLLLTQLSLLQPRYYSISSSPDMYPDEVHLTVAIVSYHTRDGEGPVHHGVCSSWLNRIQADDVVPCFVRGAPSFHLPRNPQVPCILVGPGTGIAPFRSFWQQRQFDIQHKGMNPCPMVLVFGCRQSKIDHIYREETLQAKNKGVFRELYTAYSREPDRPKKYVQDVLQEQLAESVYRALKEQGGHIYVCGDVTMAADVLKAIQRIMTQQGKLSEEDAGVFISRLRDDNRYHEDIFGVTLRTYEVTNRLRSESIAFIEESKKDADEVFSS

Sequence of Vascular endothelial growth factor receptor 1 (P17948 whole entry): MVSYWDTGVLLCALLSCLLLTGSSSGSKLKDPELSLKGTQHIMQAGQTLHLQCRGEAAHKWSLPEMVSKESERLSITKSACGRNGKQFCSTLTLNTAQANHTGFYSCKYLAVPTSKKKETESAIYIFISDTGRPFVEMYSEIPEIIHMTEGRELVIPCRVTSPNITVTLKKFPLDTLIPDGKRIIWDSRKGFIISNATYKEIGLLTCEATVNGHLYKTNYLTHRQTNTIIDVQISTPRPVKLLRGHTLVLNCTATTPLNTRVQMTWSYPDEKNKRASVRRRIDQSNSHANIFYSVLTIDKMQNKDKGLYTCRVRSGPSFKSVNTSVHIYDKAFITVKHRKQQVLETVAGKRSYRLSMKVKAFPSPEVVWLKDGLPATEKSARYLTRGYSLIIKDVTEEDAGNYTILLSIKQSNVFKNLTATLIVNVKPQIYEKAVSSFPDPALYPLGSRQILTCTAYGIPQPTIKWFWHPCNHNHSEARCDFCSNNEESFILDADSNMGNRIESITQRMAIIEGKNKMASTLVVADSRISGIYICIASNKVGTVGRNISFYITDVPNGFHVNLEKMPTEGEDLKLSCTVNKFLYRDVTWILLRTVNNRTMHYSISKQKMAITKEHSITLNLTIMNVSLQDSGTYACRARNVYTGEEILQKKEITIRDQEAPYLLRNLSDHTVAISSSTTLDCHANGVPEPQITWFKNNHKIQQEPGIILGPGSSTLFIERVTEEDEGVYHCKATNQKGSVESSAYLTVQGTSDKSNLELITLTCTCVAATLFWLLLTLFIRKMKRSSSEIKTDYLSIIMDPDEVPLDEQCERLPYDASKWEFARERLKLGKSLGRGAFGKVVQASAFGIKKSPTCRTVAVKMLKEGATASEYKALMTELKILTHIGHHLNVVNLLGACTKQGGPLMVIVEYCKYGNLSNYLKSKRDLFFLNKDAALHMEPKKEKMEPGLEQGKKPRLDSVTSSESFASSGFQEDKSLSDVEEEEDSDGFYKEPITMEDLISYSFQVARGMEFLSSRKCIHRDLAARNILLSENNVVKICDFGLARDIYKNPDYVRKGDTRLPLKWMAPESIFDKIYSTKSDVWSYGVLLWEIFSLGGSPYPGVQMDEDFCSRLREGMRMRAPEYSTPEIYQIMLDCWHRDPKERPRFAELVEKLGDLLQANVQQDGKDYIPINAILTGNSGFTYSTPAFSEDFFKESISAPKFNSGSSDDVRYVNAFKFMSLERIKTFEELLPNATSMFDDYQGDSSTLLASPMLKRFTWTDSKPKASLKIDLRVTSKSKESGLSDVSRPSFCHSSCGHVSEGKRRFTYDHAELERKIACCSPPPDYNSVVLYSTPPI
Sequence of C-C chemokine receptor type 2 (P41597 whole entry): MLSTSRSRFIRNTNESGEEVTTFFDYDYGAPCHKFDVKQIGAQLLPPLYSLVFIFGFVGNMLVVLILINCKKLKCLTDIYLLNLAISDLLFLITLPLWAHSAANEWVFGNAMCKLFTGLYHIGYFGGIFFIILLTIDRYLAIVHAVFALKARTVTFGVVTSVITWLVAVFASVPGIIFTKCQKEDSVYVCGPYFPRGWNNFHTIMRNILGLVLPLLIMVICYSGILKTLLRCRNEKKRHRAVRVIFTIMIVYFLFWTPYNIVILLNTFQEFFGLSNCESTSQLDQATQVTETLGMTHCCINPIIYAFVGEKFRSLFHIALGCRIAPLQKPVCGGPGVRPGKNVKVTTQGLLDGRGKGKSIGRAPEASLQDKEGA

O=C(c1ccccc1C(F)(F)F)N1CCC(Cc2ccccc2)CC1
Not Active: IC50 (Carbonic anhydrase 2) | IC50 [1] | IC50 (Interstitial collagenase) | IC50 [2] | Ki [2] | IC50 [3] | IC50 (Estrogen receptor) | IC50 (Calcitonin receptor) | IC50 (Nitric oxide synthase 1)

O=C/C=C/c1ccccc1
Not Active: IC50 (Carbonic anhydrase 2) | IC50 [1] | IC50 (Interstitial collagenase) | IC50 [2] | Ki [2] | IC50 [3] | IC50 (Estrogen receptor) | IC50 (Calcitonin receptor) | IC50 (Nitric oxide synthase 1)

Nc1ccc2c3c(cccc13)C(=O)NC2=O
Not Active: IC50 (Carbonic anhydrase 2) | IC50 [1] | IC50 (Interstitial collagenase) | IC50 [2] | Ki [2] | IC50 [3] | IC50 (Estrogen receptor) | IC50 (Calcitonin receptor) | IC50 (Nitric oxide synthase 1)

O=c1cnn([C@@H]2O[C@H](CO)[C@@H](O)[C@H]2O)c(=O)[nH]1 [6-AZAURIDINE]
Not Active: IC50 (Carbonic anhydrase 2) | IC50 [1] | IC50 (Interstitial collagenase) | IC50 [2] | Ki [2] | IC50 [3] | IC50 (Estrogen receptor) | IC50 (Calcitonin receptor) | IC50 (Nitric oxide synthase 1)

CC[C@H]1CN2CCc3cc(OC)c(OC)cc3[C@@H]2C[C@@H]1C[C@H]1NCCc2cc(OC)c(OC)cc21 [EMETINE]
Not Active: IC50 (Carbonic anhydrase 2) | IC50 [1] | IC50 (Interstitial collagenase) | IC50 [2] | Ki [2] | IC50 [3] | IC50 (Calcitonin receptor) | IC50 (Nitric oxide synthase 1)

C[C@@H](CO)NC(=O)[C@@H]1C=C2c3cccc4[nH]cc(c34)C[C@H]2N(C)C1 [ERGONOVINE]
Not Active: IC50 (Carbonic anhydrase 2) | IC50 [1] | IC50 (Interstitial collagenase) | IC50 [2] | Ki [2] | IC50 [3] | IC50 (Calcitonin receptor) | IC50 (Nitric oxide synthase 1)

COC(=O)CCc1ccc(OCC(O)CNC(C)C)cc1 (stereo not drawn) [ESMOLOL]
Not Active: IC50 (Carbonic anhydrase 2) | IC50 [1] | IC50 (Interstitial collagenase) | IC50 [2] | Ki [2] | IC50 [3] | IC50 (Calcitonin receptor) | IC50 (Nitric oxide synthase 1)

COc1cc([C@@H]2c3cc4c(cc3[C@@H](O[C@@H]3O[C@@H]5CO[C@@H](C)O[C@H]5[C@H](O)[C@H]3O)[C@H]3COC(=O)[C@H]23)OCO4)cc(OC)c1O [ETOPOSIDE]
Not Active: IC50 (Carbonic anhydrase 2) | IC50 [1] | IC50 (Interstitial collagenase) | IC50 [2] | Ki [2] | IC50 [3] | IC50 (Calcitonin receptor) | IC50 (Nitric oxide synthase 1)

CC(C(=O)O)c1cccc(Oc2ccccc2)c1 (stereo not drawn) [FENOPROFEN]
Not Active: IC50 (Carbonic anhydrase 2) | IC50 [1] | IC50 (Interstitial collagenase) | IC50 [2] | Ki [2] | IC50 [3] | IC50 (Calcitonin receptor) | IC50 (Nitric oxide synthase 1)

CC(C)=CCC/C(C)=C/CO [GERANIOL]
Not Active: IC50 (Carbonic anhydrase 2) | IC50 [1] | IC50 (Interstitial collagenase) | IC50 [2] | Ki [2] | IC50 [3] | IC50 (Calcitonin receptor) | IC50 (Nitric oxide synthase 1)

N=C(N)NC(=O)Cc1c(Cl)cccc1Cl [GUANFACINE]
Not Active: IC50 (Carbonic anhydrase 2) | IC50 [1] | IC50 (Interstitial collagenase) | IC50 [2] | Ki [2] | IC50 [3] | IC50 (Calcitonin receptor) | IC50 (Nitric oxide synthase 1)

Oc1c(Cl)cc(Cl)c(Cl)c1Cc1c(O)c(Cl)cc(Cl)c1Cl [HEXACHLOROPHENE]
Not Active: IC50 (Carbonic anhydrase 2) | IC50 [1] | IC50 (Interstitial collagenase) | IC50 [2] | Ki [2] | IC50 [3] | IC50 (Calcitonin receptor) | IC50 (Nitric oxide synthase 1)

NNc1nncc2ccccc12 [HYDRALAZINE]
Not Active: IC50 (Carbonic anhydrase 2) | IC50 [1] | IC50 (Interstitial collagenase) | IC50 [2] | Ki [2] | IC50 [3] | IC50 (Calcitonin receptor) | IC50 (Nitric oxide synthase 1)

CC(=O)[C@@]1(O)CC[C@H]2[C@@H]3CCC4=CC(=O)CC[C@]4(C)[C@H]3CC[C@@]21C [HYDROXYPROGESTERONE]
Not Active: IC50 (Carbonic anhydrase 2) | IC50 [1] | IC50 (Interstitial collagenase) | IC50 [2] | Ki [2] | IC50 [3] | IC50 (Calcitonin receptor) | IC50 (Nitric oxide synthase 1)

Cc1c(OCC(F)(F)F)ccnc1C[S+]([O-])c1nc2ccccc2[nH]1 (stereo not drawn) [LANSOPRAZOLE]
Not Active: IC50 (Carbonic anhydrase 2) | IC50 [1] | IC50 (Interstitial collagenase) | IC50 [2] | Ki [2] | IC50 [3] | IC50 (Calcitonin receptor) | IC50 (Nitric oxide synthase 1)

O=C(N/N=C/c1ccc([N+](=O)[O-])o1)c1cc([N+](=O)[O-])cc([N+](=O)[O-])c1O [NIFURSOL]
Not Active: IC50 (Carbonic anhydrase 2) | IC50 [1] | IC50 (Interstitial collagenase) | IC50 [2] | Ki [2] | IC50 [3] | IC50 (Calcitonin receptor) | IC50 (Nitric oxide synthase 1)

COC(=O)Nc1nc2ccc(C(=O)c3cccs3)cc2[nH]1 [NOCODAZOLE]
Not Active: IC50 (Carbonic anhydrase 2) | IC50 [1] | IC50 (Interstitial collagenase) | IC50 [2] | Ki [2] | IC50 [3] | IC50 (Calcitonin receptor) | IC50 (Nitric oxide synthase 1)

CC(C)NCC(O)COc1cccc2[nH]ccc12 (stereo not drawn) [PINDOLOL]
Not Active: IC50 (Carbonic anhydrase 2) | IC50 [1] | IC50 (Interstitial collagenase) | IC50 [2] | Ki [2] | IC50 [3] | IC50 (Calcitonin receptor) | IC50 (Nitric oxide synthase 1)

CCn1cc(C(=O)O)c(=O)c2cnc(N3CCCC3)nc21 [PIROMIDIC ACID]
Not Active: IC50 (Carbonic anhydrase 2) | IC50 [1] | IC50 (Interstitial collagenase) | IC50 [2] | Ki [2] | IC50 [3] | IC50 (Calcitonin receptor) | IC50 (Nitric oxide synthase 1)

CCCN(CCC)S(=O)(=O)c1ccc(C(=O)O)cc1 [PROBENECID]
Not Active: IC50 (Carbonic anhydrase 2) | IC50 [1] | IC50 (Interstitial collagenase) | IC50 [2] | Ki [2] | IC50 [3] | IC50 (Calcitonin receptor) | IC50 (Nitric oxide synthase 1)

CCCNCC(O)COc1ccccc1C(=O)CCc1ccccc1 (stereo not drawn) [PROPAFENONE]
Not Active: IC50 (Carbonic anhydrase 2) | IC50 [1] | IC50 (Interstitial collagenase) | IC50 [2] | Ki [2] | IC50 [3] | IC50 (Calcitonin receptor) | IC50 (Nitric oxide synthase 1)

CCCOc1ccc(C(=O)OCCN(CC)CC)cc1N [PROPARACAINE]
Not Active: IC50 (Carbonic anhydrase 2) | IC50 [1] | IC50 (Interstitial collagenase) | IC50 [2] | Ki [2] | IC50 [3] | IC50 (Calcitonin receptor) | IC50 (Nitric oxide synthase 1)

C[C@@H]1O[C@@H](O[C@@H]2C=C3CC[C@@H]4[C@H](CC[C@]5(C)[C@@H](c6ccc(=O)oc6)CC[C@]45O)[C@@]3(C)CC2)[C@H](O)[C@H](O)[C@H]1O [PROSCILLARIDIN]
Not Active: IC50 (Carbonic anhydrase 2) | IC50 [1] | IC50 (Interstitial collagenase) | IC50 [2] | Ki [2] | IC50 [3] | IC50 (Calcitonin receptor) | IC50 (Nitric oxide synthase 1)

— ChEMBL document CHEMBL1909046, “DrugMatrix in vitro pharmacology data”
